A short description of assay [1]: cells. Type of assay: functional, cell-based.
Assay [2] deals with T1, Leucine aminopeptidase (Plasmodium falciparum 3D7, UniProt Q8IL11).
T1 sequence (Q8IL11 whole entry): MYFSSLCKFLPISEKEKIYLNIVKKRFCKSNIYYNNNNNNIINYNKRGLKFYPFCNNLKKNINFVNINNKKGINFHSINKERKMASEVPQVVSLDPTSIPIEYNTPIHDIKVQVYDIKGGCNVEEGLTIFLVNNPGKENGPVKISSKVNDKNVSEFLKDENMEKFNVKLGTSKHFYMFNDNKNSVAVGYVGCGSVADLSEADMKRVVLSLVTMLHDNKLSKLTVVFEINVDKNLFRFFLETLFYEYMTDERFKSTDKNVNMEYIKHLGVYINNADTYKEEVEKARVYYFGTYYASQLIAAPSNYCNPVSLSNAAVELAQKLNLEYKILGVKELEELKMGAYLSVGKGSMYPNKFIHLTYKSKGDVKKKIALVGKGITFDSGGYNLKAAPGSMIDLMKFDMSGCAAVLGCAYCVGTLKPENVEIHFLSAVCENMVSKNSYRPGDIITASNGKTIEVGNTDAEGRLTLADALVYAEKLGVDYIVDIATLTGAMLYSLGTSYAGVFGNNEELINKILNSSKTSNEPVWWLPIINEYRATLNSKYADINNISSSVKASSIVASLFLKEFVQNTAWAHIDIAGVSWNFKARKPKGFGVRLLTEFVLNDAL
The assay is described as follows: P. falciparum M17LAP inhibitors, primary screen, biochemical, fluorogenic H-Leu-NHMec substrate, 1536-well (AID 1619). Type of assay: functional.

Assay [3] deals with T2, Trace amine-associated receptor 1 (Homo sapiens, UniProt Q96RJ0).
T2 sequence (Q96RJ0 whole entry): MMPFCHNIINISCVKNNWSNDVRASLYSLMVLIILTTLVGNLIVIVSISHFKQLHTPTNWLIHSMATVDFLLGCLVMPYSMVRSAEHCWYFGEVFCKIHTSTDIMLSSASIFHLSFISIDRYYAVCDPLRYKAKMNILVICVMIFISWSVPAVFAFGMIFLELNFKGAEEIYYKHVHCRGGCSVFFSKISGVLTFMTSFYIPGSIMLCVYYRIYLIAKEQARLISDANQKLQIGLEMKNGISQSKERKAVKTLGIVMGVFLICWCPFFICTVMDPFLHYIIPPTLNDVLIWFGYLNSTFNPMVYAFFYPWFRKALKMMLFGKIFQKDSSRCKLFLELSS
As to the kind of experiment: Fluorescence-based cell-based high throughput dose response assay to identify agonists of the human trace amine associated receptor 1 (TAAR1). Type of assay: functional.

The nature of assay [4]: cells. Type of assay: functional, cell-based. This is another data set of the same source.
Assay [5] has as its target T2, Trace amine-associated receptor 1. As to the kind of experiment: Counterscreen for agonists of the human trace amine associated receptor 1 (hTAAR1): Fluorescence-based cell-based high throughput dose response assay to identify hTAAR1 agonist that also desensitize TAAR1 receptor response. Type of assay: functional.
The target of assay [6] is T3, Fatty acid synthase (Homo sapiens, UniProt P49327). As to the kind of experiment: inhibition of human FAS-TE enzyme activity – biochemical, kinetic fluorescence intensity, dose response (AID 624326).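 Further: rate of fluorescence rise from hydrolysis of a fluorogenic O-methyl fluorescein ester substrate.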 Type of assay: functional.
Assay [7] deals with T3, Fatty acid synthase. The assay is described as follows: inhibition of human FAS-TE enzyme activity – biochemical, endpoint fluorescence intensity, uHTS hits, dose response (AID 624327).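 Further: fluorescence from hydrolysis of an O-methyl fluorescein acyl ester substrate by the enzyme.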 Type of assay: functional.
For assay [8], the target named is Albumin (Bos taurus, UniProt P02769). As to the kind of experiment: Counterscreen for inhibitors of T-cell receptor (TCR)-CD3 interaction: Fluorescence-based biochemical high throughput dose response assay to identify inhibitors of T-cell receptor (TCR)-CD3 interaction using a TAMRA-labeled BSA probe. Type of assay: functional.
The nature of assay [9]: HIV-1 AD8 envelope cell-cell fusion blockers – cherry-pick, dose response (AID 652062).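 Further: luciferase signal from cell-cell fusion driven by HIV-1 clade B AD8 Env; potency is for inhibitors of fusion seen as a drop in luminescence.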 Type of assay: functional, cell-based.
The nature of assay [10]: viability loss in CEM21 cells – cell-based, CellTiter-Glo luminescence, cherry-picked, cytotoxicity control for viral fusion inhibitor project, dose response (AID 652042).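 Further: potency for signal decrease meaning cytotoxicity.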 Type of assay: functional.
Assay [11] in a line: blockers of HIV-1 envelope-mediated cell-cell fusion – cherry-pick, dose response (AID 652057). Type of assay: functional, cell-based.
Assay [12] in a line: off-target signal loss in HeLa-CEM21 co-culture – HeLa F-luc CTL cells, cherry-picked, counter-screen for HIV-1 Env fusion inhibitor project, dose response (AID 652040).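 Further: potency for signal decrease marking cytotoxic or nonspecific inhibition.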 Type of assay: functional, cell-based.
The nature of assay [13]: general mammalian cell viability loss – inhibitor set, cherry-pick, set 2, cytotoxicity control for miR-122 modulator project, dose response (AID 720697). Type of assay: functional, cell-based.
Assay [14] is described as follows: blockers of HIV-1 ZM109 envelope-driven cell-cell fusion – HeLa effector, CEM target cells, luciferase, cherry-pick, dose response (AID 652058).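 Further: luciferase signal from HIV-1 Env mediated cell-cell fusion of effector and target cells.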 Type of assay: functional, cell-based.
Assay [15] relates to INS1. The assay is described as follows: INS-1E survival protection against cytokine death – cell-based, luminescence, retest, dose response (AID 449756).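 Further: cell death triggered by IL-1 beta plus TNF-alpha plus IFN-gamma mixture; protective hits raise ATP signal compared with cytokine alone wells.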 Type of assay: functional. The settings on record: Rattus norvegicus.
The target of assay [16] is Disintegrin and metalloproteinase domain-containing protein 17 (Homo sapiens, UniProt P78536). As to the kind of experiment: exosite inhibitors of ADAM17, dose response, biochemical (AID 743260).
Assay [17] in a line: inhibition of ADAM10 peptide cleavage – biochemical, FRET peptide substrate, recombinant human ADAM10, selectivity assay for ADAM17 exosite inhibitor project, dose response (AID 743259).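 Further: ADAM10 enzyme cleaving a FRET peptide substrate.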
A short description of assay [18]: viability of HCT116 lacking mutant beta-catenin – cell-based, human colon tumor, dose response (AID 1045).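 Further: HCT116 colon tumor cells with beta catenin knocked out; cells exposed to compound for 60 hours.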 Type of assay: functional.
The target in assay [19] is Matrix metalloproteinase-14 (Homo sapiens, UniProt P50281). The assay is described as follows: Dose Response confirmation of uHTS hits for a small molecule inhibitors of MT1-MMP activation in a fluorescence assay set 1. Type of assay: functional.
The nature of assay [20]: NIH3T3 cell viability loss – ATP luminescence, mouse fibroblasts, counter-screen, dose response (AID 2010).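 Further: cells exposed to compound for about 90 hours before reading.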 Type of assay: functional, cell-based.
The nature of assay [21]: Trypanosoma cruzi growth suppression in host cells – NIH3T3 host cells, beta-gal luminescence, confirmation (AID 2044).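 Further: intracellular parasites grown in NIH/3T3 mouse fibroblasts as host cells; luminescent beta-galactosidase reporter signal from transgenic T. cruzi replicating inside host cells; inhibitors lower the luminescence signal.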 Type of assay: functional, cell-based.
Assay [22] is described as follows: viability of PTEN-deleted HCT116 cells – cell-based, HCT116 PTEN knockout, dose response (AID 1047).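 Further: HCT116 colon tumor cells with PTEN knocked out; cells exposed to compound for 60 hours before readout; potency for loss of cell viability measured by luminescence.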 Type of assay: functional.
A short description of assay [23]: reduction of Shn3 3'UTR-driven luciferase in osteoblasts – cell-based, Clone20 osteoblasts, firefly luciferase, cherry-picked, dose response (AID 624132).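 Further: firefly luciferase luminescence from reporter carrying the Shn3 3'UTR in osteoblasts.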 Type of assay: functional.
Assay [24] can be described thus: activation of miR-122 Renilla sensor silencing – cell-based, Huh7 psiCHECK-miR122, Renilla luciferase, cherry-picked, dose response (AID 651956).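 Further: huh7 hepatoma cells stably carrying a psiCHECK-2 miR-122 sensor plasmid; renilla luciferase signal reporting endogenous miR-122 activity after 48 h compound exposure.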 Type of assay: functional.
Assay [25] in a line: general mammalian cell viability loss – activator set, cherry-pick, cytotoxicity control for miR-122 modulator project, dose response (AID 720690).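 Further: HEK293T human cells scored for general mammalian cytotoxicity.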 Type of assay: functional, cell-based.
Assay [26] addresses Melanocortin receptor 4 (Homo sapiens, UniProt P32245). Type of assay: functional, cell-based.
Assay [27] can be described thus: T. cruzi growth inhibition in host cells, dose response, cell-based, plate reader, dry powder, set 2 (AID 652275). Type of assay: functional.
In assay [28] the target is Fructose-bisphosphate aldolase (Mycobacterium tuberculosis, UniProt P9WQA3). As to the kind of experiment: Fluorescence-based biochemical high throughput dose response assay for inhibitors of the fructose-bisphosphate aldolase (FBA) of M. tuberculosis. Type of assay: functional.
Assay [29] is described as follows: HGIII-sPLA2 enzyme inhibition potency – biochemical, QFRET, IC50, dose response (AID 743457).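 Further: green fluorescence rise as the enzyme cleaves BODIPY PC-A2 in liposomes.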

Drawing on ChEMBL document CHEMBL1201862, “PubChem BioAssay data set” (2004), this text covers IC50, EC50 and AC50 for twelve compounds.

The structures appear in SMILES notation. Calls of active or inactive are those of the source.

Chain of Albumin (P02769 whole entry, the tested form may be a part): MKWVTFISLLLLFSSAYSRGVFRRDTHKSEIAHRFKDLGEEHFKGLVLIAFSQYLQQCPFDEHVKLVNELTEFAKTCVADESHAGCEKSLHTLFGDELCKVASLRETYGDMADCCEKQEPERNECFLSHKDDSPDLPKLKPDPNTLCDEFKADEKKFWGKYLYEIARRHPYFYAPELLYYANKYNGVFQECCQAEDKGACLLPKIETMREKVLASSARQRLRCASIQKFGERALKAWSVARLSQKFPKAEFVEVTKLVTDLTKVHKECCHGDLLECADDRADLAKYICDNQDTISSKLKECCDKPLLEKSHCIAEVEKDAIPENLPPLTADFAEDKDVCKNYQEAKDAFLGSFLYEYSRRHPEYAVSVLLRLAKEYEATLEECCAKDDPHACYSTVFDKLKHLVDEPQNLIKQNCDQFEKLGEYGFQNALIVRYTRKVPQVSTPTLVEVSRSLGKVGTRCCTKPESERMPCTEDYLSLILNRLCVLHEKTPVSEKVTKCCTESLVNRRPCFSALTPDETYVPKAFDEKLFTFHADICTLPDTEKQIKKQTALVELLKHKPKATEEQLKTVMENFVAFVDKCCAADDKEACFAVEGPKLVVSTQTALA
T3 sequence (P49327 whole entry): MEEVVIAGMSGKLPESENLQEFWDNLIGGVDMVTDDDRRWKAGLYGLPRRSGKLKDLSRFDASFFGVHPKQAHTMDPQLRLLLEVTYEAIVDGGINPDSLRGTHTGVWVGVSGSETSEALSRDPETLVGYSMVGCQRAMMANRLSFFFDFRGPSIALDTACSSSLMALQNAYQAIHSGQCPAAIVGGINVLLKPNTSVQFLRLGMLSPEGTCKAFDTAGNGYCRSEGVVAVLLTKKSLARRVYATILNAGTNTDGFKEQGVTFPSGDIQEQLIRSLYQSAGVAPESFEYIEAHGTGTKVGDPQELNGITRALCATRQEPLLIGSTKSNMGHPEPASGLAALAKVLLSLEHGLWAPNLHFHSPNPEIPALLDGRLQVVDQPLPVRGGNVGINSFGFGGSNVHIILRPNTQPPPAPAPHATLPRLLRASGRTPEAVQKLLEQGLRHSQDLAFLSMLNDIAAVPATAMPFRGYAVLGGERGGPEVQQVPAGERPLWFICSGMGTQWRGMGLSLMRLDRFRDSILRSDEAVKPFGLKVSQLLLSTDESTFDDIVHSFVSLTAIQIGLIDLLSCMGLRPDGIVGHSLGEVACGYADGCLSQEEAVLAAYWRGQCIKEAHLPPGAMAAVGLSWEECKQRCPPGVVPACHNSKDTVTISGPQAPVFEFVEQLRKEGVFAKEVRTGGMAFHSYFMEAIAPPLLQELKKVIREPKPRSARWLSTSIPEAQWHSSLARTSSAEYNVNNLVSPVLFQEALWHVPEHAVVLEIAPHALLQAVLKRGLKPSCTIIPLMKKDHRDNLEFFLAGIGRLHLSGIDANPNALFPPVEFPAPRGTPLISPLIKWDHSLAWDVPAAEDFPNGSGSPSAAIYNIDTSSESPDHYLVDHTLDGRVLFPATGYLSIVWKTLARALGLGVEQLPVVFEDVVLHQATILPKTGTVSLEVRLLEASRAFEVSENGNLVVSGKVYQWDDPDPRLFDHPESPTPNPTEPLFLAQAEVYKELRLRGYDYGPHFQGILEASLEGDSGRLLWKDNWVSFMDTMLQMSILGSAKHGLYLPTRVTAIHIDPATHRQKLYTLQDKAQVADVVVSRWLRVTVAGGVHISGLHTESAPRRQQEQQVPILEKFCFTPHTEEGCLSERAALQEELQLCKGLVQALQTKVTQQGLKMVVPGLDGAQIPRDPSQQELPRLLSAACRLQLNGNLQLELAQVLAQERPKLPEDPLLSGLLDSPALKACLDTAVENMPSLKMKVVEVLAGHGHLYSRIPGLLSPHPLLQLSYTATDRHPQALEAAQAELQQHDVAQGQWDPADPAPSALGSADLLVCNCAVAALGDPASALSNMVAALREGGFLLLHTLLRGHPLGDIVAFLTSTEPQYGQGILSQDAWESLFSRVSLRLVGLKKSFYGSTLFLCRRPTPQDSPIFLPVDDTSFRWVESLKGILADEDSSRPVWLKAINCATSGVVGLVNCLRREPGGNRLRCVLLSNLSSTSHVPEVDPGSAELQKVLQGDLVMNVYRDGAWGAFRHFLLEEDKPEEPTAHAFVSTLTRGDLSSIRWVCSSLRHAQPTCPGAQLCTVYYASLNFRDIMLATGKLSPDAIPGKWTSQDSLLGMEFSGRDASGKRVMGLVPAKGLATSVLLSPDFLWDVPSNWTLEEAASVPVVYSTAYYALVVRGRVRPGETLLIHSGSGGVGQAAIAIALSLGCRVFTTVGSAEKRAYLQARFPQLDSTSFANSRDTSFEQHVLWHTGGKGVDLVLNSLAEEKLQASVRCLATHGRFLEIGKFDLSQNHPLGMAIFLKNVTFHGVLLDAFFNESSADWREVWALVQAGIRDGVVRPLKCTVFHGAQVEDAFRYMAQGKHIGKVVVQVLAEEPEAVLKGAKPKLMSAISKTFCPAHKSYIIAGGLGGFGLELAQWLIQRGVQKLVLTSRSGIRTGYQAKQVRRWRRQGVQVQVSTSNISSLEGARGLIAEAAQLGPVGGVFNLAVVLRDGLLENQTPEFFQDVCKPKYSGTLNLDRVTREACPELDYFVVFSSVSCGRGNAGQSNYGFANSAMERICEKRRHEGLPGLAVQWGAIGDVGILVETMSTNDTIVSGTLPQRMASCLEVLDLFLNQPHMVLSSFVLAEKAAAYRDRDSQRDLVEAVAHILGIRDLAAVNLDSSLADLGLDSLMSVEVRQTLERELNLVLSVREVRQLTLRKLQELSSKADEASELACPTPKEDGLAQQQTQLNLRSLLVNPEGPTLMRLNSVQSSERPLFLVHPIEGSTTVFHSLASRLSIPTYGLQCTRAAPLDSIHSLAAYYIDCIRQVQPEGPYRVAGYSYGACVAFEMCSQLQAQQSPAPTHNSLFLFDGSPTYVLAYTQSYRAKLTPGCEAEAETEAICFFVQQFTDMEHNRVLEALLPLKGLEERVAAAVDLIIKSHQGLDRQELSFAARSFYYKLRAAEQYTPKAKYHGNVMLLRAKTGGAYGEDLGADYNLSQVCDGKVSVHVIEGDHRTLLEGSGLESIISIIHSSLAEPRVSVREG
Chain of Melanocortin receptor 4 (P32245 whole entry): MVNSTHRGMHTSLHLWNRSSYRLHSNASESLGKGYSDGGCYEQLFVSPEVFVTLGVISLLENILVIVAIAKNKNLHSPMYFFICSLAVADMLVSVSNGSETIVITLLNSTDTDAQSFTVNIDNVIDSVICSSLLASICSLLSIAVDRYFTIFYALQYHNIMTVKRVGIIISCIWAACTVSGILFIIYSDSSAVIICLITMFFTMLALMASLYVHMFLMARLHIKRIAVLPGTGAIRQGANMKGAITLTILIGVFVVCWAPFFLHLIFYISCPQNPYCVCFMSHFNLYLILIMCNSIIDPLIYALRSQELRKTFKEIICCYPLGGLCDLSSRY
Chain of Fructose-bisphosphate aldolase (P9WQA3 whole entry): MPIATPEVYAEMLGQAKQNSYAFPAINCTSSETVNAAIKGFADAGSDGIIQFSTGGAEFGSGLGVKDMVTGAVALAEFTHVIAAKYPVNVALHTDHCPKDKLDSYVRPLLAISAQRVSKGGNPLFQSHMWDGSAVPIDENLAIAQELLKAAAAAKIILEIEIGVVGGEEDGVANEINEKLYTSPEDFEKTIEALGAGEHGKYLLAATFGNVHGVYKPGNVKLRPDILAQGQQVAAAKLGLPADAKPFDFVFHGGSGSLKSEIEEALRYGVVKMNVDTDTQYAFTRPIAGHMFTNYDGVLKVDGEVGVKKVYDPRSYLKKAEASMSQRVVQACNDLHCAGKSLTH
Chain of Disintegrin and metalloproteinase domain-containing protein 17 (P78536 whole entry, the tested form may be a part): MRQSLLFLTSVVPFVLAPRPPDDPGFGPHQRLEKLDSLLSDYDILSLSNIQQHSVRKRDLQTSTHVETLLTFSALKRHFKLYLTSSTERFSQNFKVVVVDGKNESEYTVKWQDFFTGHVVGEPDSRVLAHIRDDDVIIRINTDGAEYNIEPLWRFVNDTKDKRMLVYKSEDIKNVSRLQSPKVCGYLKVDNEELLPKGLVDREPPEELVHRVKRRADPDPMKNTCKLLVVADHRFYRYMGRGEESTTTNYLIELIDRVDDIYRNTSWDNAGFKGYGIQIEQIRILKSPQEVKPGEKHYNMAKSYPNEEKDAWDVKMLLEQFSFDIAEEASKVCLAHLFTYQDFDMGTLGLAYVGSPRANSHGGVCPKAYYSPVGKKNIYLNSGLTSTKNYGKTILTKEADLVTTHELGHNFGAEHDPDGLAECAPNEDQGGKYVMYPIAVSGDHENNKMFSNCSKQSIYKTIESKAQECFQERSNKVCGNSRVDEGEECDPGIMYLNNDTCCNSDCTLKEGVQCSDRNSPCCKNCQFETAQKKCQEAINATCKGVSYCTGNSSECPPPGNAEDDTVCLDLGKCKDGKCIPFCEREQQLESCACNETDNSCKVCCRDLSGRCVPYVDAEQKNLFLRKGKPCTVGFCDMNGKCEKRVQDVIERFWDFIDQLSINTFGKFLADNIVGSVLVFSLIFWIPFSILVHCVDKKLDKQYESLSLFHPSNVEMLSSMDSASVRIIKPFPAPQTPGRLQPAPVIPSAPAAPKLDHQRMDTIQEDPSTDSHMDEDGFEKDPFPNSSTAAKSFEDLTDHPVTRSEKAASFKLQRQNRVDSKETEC

As to `CC1=C(C)CC(C(=O)NCCc2ccccc2)C(C(=O)O)C1` (centres undefined), the IC50 in [1] is > 29.9 µM (inactive); in [2], 46 µM (active); in assay [5] it was 7.2 µM (active). Moreover, the EC50 is 1.4 µM (active) in assay [3] and > 29.9 µM (inactive) in assay [4].

With `O=C(N/N=C/c1cc([N+](=O)[O-])cc([N+](=O)[O-])c1O)/C(=C\c1cccs1)NC(=O)c1ccccc1`, the IC50 in assay [6] was 4.89 µM (active); in [7] it was 6.3 µM (active); in [8] it was > 94.1 µM (inactive).

Consider `COc1ccc(COC(=O)C2=C(C)NC(=O)NC2c2ccc(OC)cc2)cc1` (centres undefined), for which the concentration at half-maximal activity (AC50) in assay [9] was 33.4 µM (active); in [10], 60.3 µM (active); in assay [11], 21.6 µM (active); in [12], 47.3 µM (active).

As for `C[C@@H]1CN([C@@H](C)CO)S(=O)(=O)c2ccc(/C=C/c3ccccc3)cc2O[C@@H]1CN(C)C(=O)NC1CCCCC1`, the concentration at half-maximal activity (AC50) in [13] was 0.533 µM (active).

For `S=C(NCCCN1CCOCC1)N1CCN(c2nc(-c3ccc(Cl)cc3)cs2)CC1`, the AC50 was 7.13 µM (active) in assay [9]; 0.888 µM (active) in assay [14]; 19.9 µM (active) in assay [10]; 11.2 µM (active) in assay [15]; 31 µM (active) in assay [11]; 25.9 µM (active) in assay [12].

Consider `COc1ccccc1N(C)S(=O)(=O)c1ccc(C(=O)NNC(=O)c2ccccc2O)cc1`, for which the IC50 in assay [16] is > 69.5 µM (inactive); in assay [17], > 69.5 µM (inactive); in assay [8], > 94.1 µM (inactive).

With `Cc1ccccc1-n1c(=O)cc(N2CCc3ccccc3C2)[nH]c1=O`, the figures for the IC50 in assay [1] and in [5] were > 29.9 µM (inactive) and 7.07 µM (active), respectively. For the same compound, the EC50 in assay [3] is 2.59 µM (active); in assay [4] it was > 29.9 µM (inactive).

For the compound `Nc1nc(-c2ccc(Cl)cc2)c(N=Nc2ccc(S(=O)(=O)N3CCOCC3)cc2)s1`, the EC50 was 17.4 µM (active) in [18], > 60 µM (inconclusive) in [20], 1.96 µM (active) in [21] and 16.5 µM (active) in assay [22]. For the same compound, in assay [19], the IC50 is 27.7 µM (inactive).

On to `CCN1CCN(Cc2ccc(NC(=O)c3cc(NC(=O)c4cc5cccc(OC)c5o4)cc(OC)c3)cc2C(F)(F)F)CC1`, for which the half-maximal activity concentration (AC50) was 4.28 µM (active) in assay [13], 9.77 µM (active) in assay [23], 12.1 µM (active) in [24] and 8.76 µM (active) in [25]. In addition, the EC50 in [26] was > 89.2 µM (inactive).

On to `C[C@H]1CN([C@@H](C)CO)C(=O)c2cccc(NC(=O)c3ccncc3)c2O[C@@H]1CN(C)Cc1ccccc1C(F)(F)F`, for which, in assay [27], the AC50 was 0.0342 µM (active).

Take `Cc1cc(C)c2oc(-c3cccc(N)c3)nc2c1`: the 50% inhibitory concentration (IC50) in assay [28] is 0.518 µM (active).

As for `O=C1c2ccccc2C(=O)c2c(Nc3ccc(CCO)cc3)ccc(O)c21`, the IC50 in [29] is > 122 µM (inactive).
